{"source": "patent US9617577B2", "about": "“Bacillus pumilus bilirubin oxidase and applications thereof” (CENTRE NATIONAL DE LA RECHERCHE SCIENTIFIQUE, priority 2010, dated 2017)", "key": {"[1]": {"molecular_target": "T1, Bacillus pumilus bilirubin oxidase (BOD), wild type, strain SAFR-032, SEQ ID No. 2 (C-terminal 6xHis tag) (Bacillus pumilus, UniProt A8FAG9)", "T1 sequence (A8FAG9 with tags, fused parts or gaps)": "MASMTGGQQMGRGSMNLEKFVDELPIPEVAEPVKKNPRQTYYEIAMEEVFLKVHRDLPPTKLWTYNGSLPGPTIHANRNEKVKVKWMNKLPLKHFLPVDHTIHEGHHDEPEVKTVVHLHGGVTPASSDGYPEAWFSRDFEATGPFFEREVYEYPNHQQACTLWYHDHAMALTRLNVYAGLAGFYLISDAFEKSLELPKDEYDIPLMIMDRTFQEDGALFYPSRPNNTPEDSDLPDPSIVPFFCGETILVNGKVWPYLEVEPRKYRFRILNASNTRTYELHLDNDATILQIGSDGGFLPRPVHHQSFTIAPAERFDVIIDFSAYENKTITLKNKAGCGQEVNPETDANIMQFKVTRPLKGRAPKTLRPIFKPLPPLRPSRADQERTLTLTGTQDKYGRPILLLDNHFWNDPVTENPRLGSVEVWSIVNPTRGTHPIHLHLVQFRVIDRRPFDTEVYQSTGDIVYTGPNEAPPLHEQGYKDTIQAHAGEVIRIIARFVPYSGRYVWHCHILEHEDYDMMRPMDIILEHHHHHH", "assay": "Steady-state kinetics of 2,6-dimethoxyphenol (DMP) oxidation by B. pumilus BOD", "conditions": "37° C., 50 mM sodium phosphate buffer, pH 6.8", "experimental": "(§3) The experiments are carried out at 37° C. on a Varian spectrophotometer in a 50 mM sodium phosphate buffer, pH 6.8. The 2,6-dimethoxyphenol concentration varies in the test from 0 to 4000 μM. The test, triggered by adding the enzyme, consists in following the oxidation of the DMP at 468 nm by coloroimetric change (ε468nm=14.8 mM^−1 cm^−1)."}, "[2]": {"molecular_target": "T1, Bacillus pumilus bilirubin oxidase (BOD), wild type, strain SAFR-032, SEQ ID No. 2 (C-terminal 6xHis tag)", "assay": "Activity (SGZ oxidation) as a function of the presence of DTT or of EDTA", "type": "biochemical", "conditions": "50 μM SGZ, 37° C., pH 6.2, read-out: Relative activity", "procedure": "(§1) The concentration of SGZ, diluted in methanol, is fixed in the test at 50 μM. […] Table III below collates the results obtained, presented in relative activity form."}, "Bacillus pumilus BOD [3]": {"system": "Bacillus pumilus BOD", "assay": "Activity as a function of the presence of DTT or EDTA (SGZ oxidation)", "type": "biochemical", "conditions": "SGZ 50 μM, 37° C., pH 6.2", "procedure": "as §1"}, "[4]": {"molecular_target": "T1, Bacillus pumilus bilirubin oxidase (BOD), wild type, strain SAFR-032, SEQ ID No. 2 (C-terminal 6xHis tag)", "assay": "Steady-state kinetics of syringaldazine (SGZ) oxidation by B. pumilus BOD", "type": "biochemical", "conditions": "37° C., 50 mM citrate/phosphate buffer, pH 6.2; model with competitive inhibition; in 1/s", "procedure": "(§2) The SGZ concentration, diluted in methanol, varies in the test from 0 to 300 μM."}, "Bacillus pumilus BOD [5]": {"system": "Bacillus pumilus BOD", "assay": "Activity as a function of the presence of urea (ABTS oxidation)", "conditions": "urea 0 to 6 M, 100 mM citrate/phosphate buffer, pH 3", "experimental": "The experiments are carried out at 37° C. on a Varian spectrophotometer in a 0.1 M citrate/phosphate buffer, pH 3. […] The test is triggered by adding enzyme."}, "[6]": {"molecular_target": "T1, Bacillus pumilus bilirubin oxidase (BOD), wild type, strain SAFR-032, SEQ ID No. 2 (C-terminal 6xHis tag)", "assay": "Steady-state kinetics of conjugated bilirubin oxidation by B. pumilus BOD", "type": "biochemical", "conditions": "37° C., 50 mM sodium phosphate buffer, pH 4.8"}, "[7]": {"substrate": "COc1cc(/C=N/N=C/c2cc(OC)c(O)c(OC)c2)cc(OC)c1O", "assay": "Steady-state kinetics of syringaldazine (SGZ) oxidation by B. pumilus BOD", "type": "biochemical, Bacillus pumilus", "conditions": "other: 37° C., 50 mM citrate/phosphate buffer, pH 6.2, model with competitive inhibition", "procedure": "as §2"}, "[8]": {"substrate": "C=CC1=C(C)/C(=C/c2[nH]c(Cc3[nH]c(/C=C4\\NC(=O)C(C)=C4C=C)c(C)c3CCC(=O)O)c(CCC(=O)O)c2C)NC1=O", "assay": "Steady-state kinetics of unconjugated bilirubin oxidation by B. pumilus BOD", "type": "biochemical, Bacillus pumilus", "conditions": "other: 37° C., 50 mM sodium phosphate buffer, pH 7"}, "[9]": {"substrate": "COc1cccc(OC)c1O", "assay": "purified protein, by the assay type", "conditions": "other: 37° C., 50 mM sodium phosphate buffer, pH 6.8", "experimental": "as §3"}, "[10]": {"assay": "Specific activity for ABTS", "type": "biochemical", "conditions": "BOD according to the invention", "procedure": "The enzyme is diluted so as to measure a slope between 0.05 and 0.3 OD420nm/min."}, "[11]": {"assay": "Remazol Brilliant Blue R (RBBR) discoloration activity", "type": "biochemical", "conditions": "RBBR 80 mg.l^−1, 37° C., 50 mM potassium phosphate buffer, pH 6, absence or presence of 10 μM ABTS", "procedure": "The RBBR concentration is fixed at 80 mg.l^−1 in each tank. The test, triggered by adding 10 μg of enzyme, consists in following, over time, the discoloration of the RBBR dye at 593 nm."}, "[12]": {"assay": "Stability of the enzyme as a function of temperature", "type": "physicochemical", "conditions": "incubation at 80° C., residual activity on ABTS", "procedure": "The enzyme is preincubated at a concentration of 10 mg/ml in a dry bath at 80° C. […] The test is triggered by adding enzyme."}}}
{"molecule": "COc1cccc(OC)c1O", "note": "[DMP, 2,6-Dimethoxyphenol]", "values": [{"measurement": "kss", "setting": "[1]", "result": 57.3, "unit": "s⁻¹"}]}
{"molecule": "OC(CS)C(O)CS", "note": "(centres unmarked) [DTT]", "values": [{"measurement": "activity at 1 µM", "setting": "[2]; DTT 0.001 mM", "result": "99 ± 4", "unit": "%"}, {"measurement": "activity at 5 µM", "setting": "[2]; DTT 0.005 mM", "result": "93 ± 2", "unit": "%"}, {"measurement": "activity at 10 µM", "setting": "[2]; DTT 0.01 mM", "result": "93 ± 4", "unit": "%"}, {"measurement": "activity at 15 µM", "setting": "[2]; DTT 0.015 mM", "result": "94 ± 3", "unit": "%"}, {"measurement": "activity at 30 µM", "setting": "[2]; DTT 0.03 mM", "result": "85 ± 1", "unit": "%"}, {"measurement": "activity at 50 µM", "setting": "[2]; DTT 0.05 mM", "result": "81 ± 4", "unit": "%"}]}
{"molecule": "O[C@@H](CS)[C@@H](O)CS", "note": "[DTT]", "values": [{"measurement": "Relative activity (%)", "setting": "Bacillus pumilus BOD [3]; DTT 0.001 mM", "result": "99 ± 4", "unit": "%"}, {"measurement": "Relative activity (%)", "setting": "Bacillus pumilus BOD [3]; DTT 0.005 mM", "result": "93 ± 2", "unit": "%"}, {"measurement": "Relative activity (%)", "setting": "Bacillus pumilus BOD [3]; DTT 0.01 mM", "result": "93 ± 4", "unit": "%"}, {"measurement": "Relative activity (%)", "setting": "Bacillus pumilus BOD [3]; DTT 0.015 mM", "result": "94 ± 3", "unit": "%"}, {"measurement": "Relative activity (%)", "setting": "Bacillus pumilus BOD [3]; DTT 0.03 mM", "result": "85 ± 1", "unit": "%"}, {"measurement": "Relative activity (%)", "setting": "Bacillus pumilus BOD [3]; DTT 0.05 mM", "result": "81 ± 4", "unit": "%"}]}
{"molecule": "O=C(O)CN(CCN(CC(=O)O)CC(=O)O)CC(=O)O", "note": "[EDTA]", "values": [{"measurement": "activity at 100 µM", "setting": "[2]; EDTA 0.1 mM", "result": "97 ± 1", "unit": "%"}, {"measurement": "activity at 1000 µM", "setting": "[2]; EDTA 1 mM", "result": "99 ± 5", "unit": "%"}, {"measurement": "activity at 10000 µM", "setting": "[2]; EDTA 10 mM", "result": "95 ± 1", "unit": "%"}, {"measurement": "activity at 25000 µM", "setting": "[2]; EDTA 25 mM", "result": "98 ± 3", "unit": "%"}, {"measurement": "activity at 50000 µM", "setting": "[2]; EDTA 50 mM", "result": "99 ± 4", "unit": "%"}, {"measurement": "activity at 75000 µM", "setting": "[2]; EDTA 75 mM", "result": "95 ± 2", "unit": "%"}, {"measurement": "activity at 100000 µM", "setting": "[2]; EDTA 100 mM", "result": "95 ± 1", "unit": "%"}, {"measurement": "activity at 125000 µM", "setting": "[2]; EDTA 125 mM", "result": "89 ± 3", "unit": "%"}, {"measurement": "Relative activity (%)", "setting": "Bacillus pumilus BOD [3]; EDTA 0.1 mM", "result": "97 ± 1", "unit": "%"}, {"measurement": "Relative activity (%)", "setting": "Bacillus pumilus BOD [3]; EDTA 1 mM", "result": "99 ± 5", "unit": "%"}, {"measurement": "Relative activity (%)", "setting": "Bacillus pumilus BOD [3]; EDTA 10 mM", "result": "95 ± 1", "unit": "%"}, {"measurement": "Relative activity (%)", "setting": "Bacillus pumilus BOD [3]; EDTA 25 mM", "result": "98 ± 3", "unit": "%"}, {"measurement": "Relative activity (%)", "setting": "Bacillus pumilus BOD [3]; EDTA 50 mM", "result": "99 ± 4", "unit": "%"}, {"measurement": "Relative activity (%)", "setting": "Bacillus pumilus BOD [3]; EDTA 75 mM", "result": "95 ± 2", "unit": "%"}, {"measurement": "Relative activity (%)", "setting": "Bacillus pumilus BOD [3]; EDTA 100 mM", "result": "95 ± 1", "unit": "%"}, {"measurement": "Relative activity (%)", "setting": "Bacillus pumilus BOD [3]; EDTA 125 mM", "result": "89 ± 3", "unit": "%"}]}
{"molecule": "COc1cc(/C=N/N=C/c2cc(OC)c(O)c(OC)c2)cc(OC)c1O", "note": "[SGZ, Syringaldazine]", "values": [{"measurement": "kcat", "setting": "[4]", "result": 116.1}]}
{"molecule": "NC(N)=O", "note": "[urea]", "values": [{"measurement": "effect of urea on BOD activity (ABTS oxidation)", "setting": "Bacillus pumilus BOD [5]; 25° C.", "result": "activating effect"}, {"measurement": "effect of urea on BOD activity (ABTS oxidation)", "setting": "Bacillus pumilus BOD [5]; 37° C.", "result": "not found"}]}
{"molecule": "conjugated bilirubin", "values": [{"measurement": "Km", "setting": "[6]", "result": 35.1, "unit": "µM"}, {"measurement": "kcat", "setting": "[6]", "result": 66.8, "unit": "s⁻¹"}]}
{"molecule": "Bacillus pumilus bilirubin oxidase (BOD), wild type, strain SAFR-032, SEQ ID No. 2 (C-terminal 6xHis tag) (Bacillus pumilus SAFR-032) (protein) MASMTGGQQMGRGSMNLEKFVDELPIPEVAEPVKKNPRQTYYEIAMEEVFLKVHRDLPPTKLWTYNGSLPGPTIHANRNEKVKVKWMNKLPLKHFLPVDHTIHEGHHDEPEVKTVVHLHGGVTPASSDGYPEAWFSRDFEATGPFFEREVYEYPNHQQACTLWYHDHAMALTRLNVYAGLAGFYLISDAFEKSLELPKDEYDIPLMIMDRTFQEDGALFYPSRPNNTPEDSDLPDPSIVPFFCGETILVNGKVWPYLEVEPRKYRFRILNASNTRTYELHLDNDATILQIGSDGGFLPRPVHHQSFTIAPAERFDVIIDFSAYENKTITLKNKAGCGQEVNPETDANIMQFKVTRPLKGRAPKTLRPIFKPLPPLRPSRADQERTLTLTGTQDKYGRPILLLDNHFWNDPVTENPRLGSVEVWSIVNPTRGTHPIHLHLVQFRVIDRRPFDTEVYQSTGDIVYTGPNEAPPLHEQGYKDTIQAHAGEVIRIIARFVPYSGRYVWHCHILEHEDYDMMRPMDIILEHHHHHH", "values": [{"measurement": "Km", "setting": "[7]", "result": 45.6, "unit": "µM"}, {"measurement": "Km", "setting": "[8]", "result": 22, "unit": "µM"}, {"measurement": "kcat", "setting": "[8]", "result": 70, "unit": "s⁻¹"}, {"measurement": "Km", "setting": "[9]", "result": 822, "unit": "µM"}]}
{"molecule": "Bacillus pumilus BOD: wild-type bilirubin oxidase of Bacillus pumilus strain SAFR032, SEQ ID No. 2, produced in E. coli with C-terminal 6HIS tag (protein, listed as Bacillus pumilus, C-terminal 6His tag) MASMTGGQQMGRGSMNLEKFVDELPIPEVAEPVKKNPRQTYYEIAMEEVFLKVHRDLPPTKLWTYNGSLPGPTIHANRNEKVKVKWMNKLPLKHFLPVDHTIHEGHHDEPEVKTVVHLHGGVTPASSDGYPEAWFSRDFEATGPFFEREVYEYPNHQQACTLWYHDHAMALTRLNVYAGLAGFYLISDAFEKSLELPKDEYDIPLMIMDRTFQEDGALFYPSRPNNTPEDSDLPDPSIVPFFCGETILVNGKVWPYLEVEPRKYRFRILNASNTRTYELHLDNDATILQIGSDGGFLPRPVHHQSFTIAPAERFDVIIDFSAYENKTITLKNKAGCGQEVNPETDANIMQFKVTRPLKGRAPKTLRPIFKPLPPLRPSRADQERTLTLTGTQDKYGRPILLLDNHFWNDPVTENPRLGSVEVWSIVNPTRGTHPIHLHLVQFRVIDRRPFDTEVYQSTGDIVYTGPNEAPPLHEQGYKDTIQAHAGEVIRIIARFVPYSGRYVWHCHILEHEDYDMMRPMDIILEHHHHHH", "values": [{"measurement": "specific activity for ABTS", "setting": "[10]", "result": 375, "unit": "U/mg"}, {"measurement": "discolouring activity on dyes used in the textile industry", "setting": "[11]", "result": "discolouring activity"}, {"measurement": "heat stability", "setting": "[12]", "result": "very good heat stability"}]}
